For 18 compounds, Ki results are on record in patent publication US10822338B2, “Substituted aminoquinazoline compounds as A2A antagonist” (Merck Sharp & Dohme Corp., priority 2015, dated 2020).

Sequence of human A2A receptor (P29274 whole entry): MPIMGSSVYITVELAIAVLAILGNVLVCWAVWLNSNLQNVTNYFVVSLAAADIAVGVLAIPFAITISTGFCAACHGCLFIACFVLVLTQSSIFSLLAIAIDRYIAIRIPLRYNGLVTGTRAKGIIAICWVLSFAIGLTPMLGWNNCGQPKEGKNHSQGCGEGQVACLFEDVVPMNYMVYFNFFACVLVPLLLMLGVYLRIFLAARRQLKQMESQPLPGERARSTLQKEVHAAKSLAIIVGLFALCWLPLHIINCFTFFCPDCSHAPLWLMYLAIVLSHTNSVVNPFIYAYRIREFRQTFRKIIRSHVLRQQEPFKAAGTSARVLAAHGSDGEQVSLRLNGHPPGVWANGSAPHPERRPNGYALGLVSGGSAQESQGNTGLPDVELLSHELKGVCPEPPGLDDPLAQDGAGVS

One experiment concerns the target human A2A receptor (Homo sapiens (Human), UniProt P29274). Nature of the experiment: A2A competition binding assay using Scintillation Proximity technology. The following applies: 0.25 μg of membranes from HEK293 cells expressing the human A2a receptor per well; 0.5 nM tritiated radioligand; Cheng-Prusoff. As to the method: Binding affinities of compounds of the invention for the human A2A receptor were determined in a competition binding assay using Scintillation Proximity technology. Thus, 1^μg (^ denotes 1 μg of membrane/well), or preferably 0.25 μg of membranes from HEK293 cells expressing the human A2a receptor were incubated with a compound of the invention at concentrations ranging from 3000 nM to 0.15 nM in a reaction mixture containing also 0.5 nM of a tritiated form of 5-amino-7-[2-phenethyl]-2-(furan-2-yl)-7H-pyrazolo[4,3-e][1,2,4]triazolo[1,5-c]pyrimidine (the tritiated compound) and 25 μg of wheat germ agglutin-coated yttrium silicate SPA beads for one hour at room temperature with agitation. The beads were then allowed to settle to the bottom of the wells for 1 hr, after which the membrane-associated radioactivity was determined by scintillation counting in a TopCount microplate reader. Ki values were determined using the Cheng-Prusoff equation.
HEK293 cells expressing the human, rat, dog or monkey adenosine 2a receptor (Purchased from Perkin-Elmer # RBHA2AM400UA).
The Tritiated compound was prepared in-house by MRL Radiochemistry according to published methods.
Wheat germ agglutinin-coated yttrium silicate SPA beads (GE Healthcare #RPNQ0023). Dilute to 25 mg/mL in assay buffer.
Assay Buffer was prepared in house: Dulbecco's calcium and magnesium free phosphate buffered saline+10 mM MgCl2
Adenosine deaminase from calf intestine, 10 mg/2 mL (Roche #10 102 105 001).
A2A antagonist standard (9-chloro-1-(2-furanyl)-[1,2,4]triazolo[1,5-c]quinazolin-5-amine from Tocris Bioscience)
Make eight 1:3 serial dilutions in 100% DMSO from a 3 mM compound stock
Transfer 50 nL of compound into a 384-well OptiPlate (Perkin Elmer).
Typically, final concentrations of compound used in the assay ranged from 3000 nM to 0.152 nM.
Dilute a solution of the Tritiated compound to 1.25 nM in assay buffer. This a 2.5× solution. The final concentration in the assay is 0.5 nM. Calculate the concentration by counting two 5 μL aliquots.
Use *1 ug or preferrably 0.25 ug of membrane/well. Dilute membranes to 9.7 μg/ml in assay buffer. Treat with 20 ug/ml adenosine deaminase (ADA) for 15 minutes at room temperature to degrade endogenous adenosine.
Use 25 μg/well wheat germ agglutinin-coated yttrium silicate SPA beads.
Mix ADA-treated membranes and SPA beads together for 30 min prior to assay.
To the Perkin-Elmer Optiplate-384 containing the compound titration add 20 μL of 2.5× solution of the Tritiated compound and 30 μL of the membrane-bead mixture. Incubate for one hour at room temperature with agitation.
Include total binding (assay buffer+1% DMSO) and non-specific binding (CGS15943, 1 μM) wells.
Allow the beads to settle for one hour.
A curve fitting program (i.e., Prism, Activity Base, Chemcart) is used to determine the EC50. The Ki value is calculated using the Cheng-Prusoff equation. Ki=EC50/(1+(radioligand concentration/Kd)) Counting and Calculations
Counting and calculations were performed as described within the “A2A Activity Binding of Compounds of the Invention” section. Using the foregoing methods, the following results were obtained using compounds of the invention described herein. Each example compound tested is reported in the following format: Example number: A2A Ki (nM) selectivity.
For orientation: SPA uses beads or plates that emit light when radiolabelled molecules are held near them.
By Ki is commonly meant a measure of affinity in units of concentration, obtained from inhibition or displacement. Low readings indicate tighter binding, high ones weaker binding. As to `COc1cccc2c1nc(N)n1nc(C3CCC(F)(F)CN3)nc21` (single isomer, unassigned) [Example 58B, 2-(5,5-difluoropiperidin-2-yl)-7-methoxy-[1,2,4]triazolo[1,5-c]quinazolin-5-amine], the Ki worked out at 0.3 nM.

Regarding `COc1cccc2c1nc(N)n1nc(C3CCCC(N)C3)nc21` (single isomer, unassigned) [Example 30C, 2-(3-aminocyclohexyl)-7-methoxy-[1,2,4]triazolo[1,5-c]quinazolin-5-amine], the affinity, expressed as Ki, was 115 nM.

Compound `COc1cccc2c1nc(N)n1nc([C@@H]3CCCN(CC4CC(F)(F)C4)C3)nc21` [Example 17, (R)-2-(1-((3,3-difluorocyclobutyl)methyl)piperidin-3-yl)-7-methoxy-[1,2,4]triazolo[1,5-c]quinazolin-5-amine] displayed a Ki of 0.7 nM.

Compound `COc1cccc2c1nc(N)n1nc(C3CC4CCC3N(CC(F)(F)F)C4)nc21` (single isomer, unassigned) [Example 35C, 7-methoxy-2-(2-(2,2,2-trifluoroethyl)-2-azabicyclo[2.2.2]octan-6-yl)-[1,2,4]triazolo[1,5-c]quinazolin-5-amine] displayed an inhibitory constant (Ki) of 0.3 nM.

In the case of `COc1cccc2c1nc(N)n1nc([C@@H]3CCCN(CC4CCOCC4)C3)nc21` [Example 44, (R)-7-methoxy-2-(1-((tetrahydro-2H-pyran-4-yl)methyl)piperidin-3-yl)-[1,2,4]triazolo[1,5-c]quinazolin-5-amine], the Ki was determined as 5 nM.

Consider `COc1cccc2c1nc(N)n1nc([C@@H]3CCCN(C(=O)C(C)(C)F)C3)nc21` [Example 42, (R)-1-(3-(5-amino-7-methoxy-[1,2,4]triazolo[1,5-c]quinazolin-2-yl)piperidin-1-yl)-2-fluoro-2-methylpropan-1-one], for which the affinity, expressed as Ki, was 1.1 nM.

The compound `COc1cccc2c1nc(N)n1nc(C3CCCC(N)C3)nc21` (single isomer, unassigned) [Example 30B, 2-(3-aminocyclohexyl)-7-methoxy-[1,2,4]triazolo[1,5-c]quinazolin-5-amine] showed a Ki of 44 nM.

`COc1cccc2c1nc(N)n1nc([C@@H]3CCCN(CC4(C)CC4)C3)nc21` [Example 10, (R)-7-methoxy-2-(1-((1-methylcyclopropyl)methyl)piperidin-3-yl)-[1,2,4]triazolo[1,5-c]quinazolin-5-amine] displayed a Ki of 20 nM.

Compound `COc1cccc2c1nc(N)n1nc([C@@H]3CCCN(Cc4cc(F)cc(C(F)(F)F)c4)C3)nc21` [Example 46, 2-((3R)-1-[3-fluoro-5-(trifluoromethyl)benzyl)piperidin-3-yl)-7-methoxy[1,2,4]triazolo [1,5-c]quinazolin-5-amine] yielded a Ki of 2 nM.

As to `COc1cccc2c1nc(N)n1nc(C3CCCC(N)C3)nc21` (single isomer, unassigned) [Example 30D, 2-(3-aminocyclohexyl)-7-methoxy-[1,2,4]triazolo[1,5-c]quinazolin-5-amine], affinity was put at a Ki of 660 nM.

`COc1cccc2c1nc(N)n1nc(C3CCCC(CCC(F)(F)F)C3)nc21` (single isomer, unassigned) [Example 29B, 7-methoxy-2-(3-(3,3,3-trifluoropropyl)cyclohexyl)-[1,2,4]triazolo[1,5-c]quinazolin-5-amine] came in with an inhibition constant Ki of 1.7 nM.

Compound `COc1cccc2c1nc(N)n1nc(C3CCCC(N)C3)nc21` (single isomer, unassigned) [Example 30A, 2-(3-aminocyclohexyl)-7-methoxy-[1,2,4]triazolo[1,5-c]quinazolin-5-amine] registered a Ki of 91 nM.

In the case of `COc1cccc2c1nc(N)n1nc([C@@H]3CCCN(C4CCC(F)(F)CC4)C3)nc21` [Example 49, 2-((3R)-1-(4,4-difluorocyclohexyl)piperidin-3-yl)-7-methoxy[1,2,4]triazolo [1,5-c]quinazolin-5-amine], the Ki turned out to be 5.9 nM.

Still in this experiment, the particulars now being: values marked ^: 1 μg of membrane/well (HEK293 cells expressing the human A2a receptor); 0.5 nM tritiated radioligand; Cheng-Prusoff.
For the compound `Nc1nc2c(Cl)cccc2c2nc(C3CCCN(CCC(F)(F)F)C3)nn12` (racemic) [Example 27, (±)-7-chloro-2-(1-(3,3,3-trifluoropropyl)piperidin-3-yl)-[1,2,4]triazolo[1,5-c]quinazolin-5-amine], the Ki worked out at 9.7 nM.

The compound `COc1cccc2c1nc(N)n1nc(C3CCCN(c4ccccc4)C3)nc21` (single isomer, unassigned) [Example 50B, 7-methoxy-2-(1-phenylpiperidin-3-yl)-[1,2,4]triazolo[1,5-c]quinazolin-5-amine] had a Ki of 34 nM.

Consider `COc1cccc2c1nc(N)n1nc([C@@H]3CCCN(Cc4cnc(C)s4)C3)nc21` [Example 48, 7-methoxy-2-((3R)-1-((2-methyl-1,3-thiazol-5-yl)methyl)piperidin-3-yl)[1,2,4]triazolo[1,5-c]quinazolin-5-amine], for which the Ki came out at 2.1 nM.

Compound `Nc1nc2c3c(ccc2c2nc(C4CCCN(CCC(F)(F)F)C4)nn12)OC(F)(F)O3` (single isomer, unassigned) [Example 56A] displayed a Ki of 0.8 nM.

With `COc1cccc2c1nc(N)n1nc([C@@H]3CCCN(S(=O)(=O)c4ccccc4)C3)nc21` [Example 36, (R)-7-methoxy-2-(1-(phenylsulfonyl)piperidin-3-yl)-[1,2,4]triazolo[1,5-c]quinazolin-5-amine], the Ki was found to be 1.2 nM.
